{
  "source": "paper PMC2435557",
  "about": "“Developing and applying a gene functional association network for anti-angiogenic kinase inhibitor activity assessment in an angiogenesis co-culture model” (BMC Genomics, 2008)",
  "key": {"[1]": {"system": "HUVEC cord formation in co-culture with NHDF", "assay": "HUVEC/NHDF cord formation co-culture assay (in vitro angiogenesis, high content imaging)", "format": "cell-based, human", "conditions": "for EC50: Homo sapiens, cord area normalized to control group, mean of two to four independent experiments, sigmoidal dose-response fit, read-out: observed EC50 of cord formation inhibition (cord area)", "experimental": "In vitro HUVEC cord formation co-culture was performed using the AngioKit commercially available from TCScellworks (Buckingham, UK) adapted to a 24-well format. To test HUVEC and NHDF passage dependence effects, the co-culture was done in house adapted to a 96-well format. Briefly, HUVEC cells were co-cultured onto human dermal fibroblast feeder layers in Optimised medium (TCScellworks, Buckingham, UK) for a total of about 12 days. Treatment started the day when the plates were received; usually three to four days after initial plating. Medium with or without growth factors or compounds was replenished every 2 to 3 days. Cells were fixed with 70% cold ethanol at the end of the culture and processed for anti-CD31/Alexa 488 immunofluorescence. To visualize feeder layer fibroblasts, some cultures were stained using a polyclonal antibody against Vimentin (Abcam, Cambridge, Massachusetts) along with an Alexa 568 conjugated secondary antibody to examine the feeder cell integrity. Nuclear staining was performed using Hoechst staining (Invitrogen Molecular Probe, Carlsbad, California).\nImmunofluorescence stained co-culture plates were scanned using ArrayScan VTI (Cellomics, Pittsburgh, Pennsylvania) and the multi-parameter tube formation Bioapplication was used for quantification. Morphological measurements included cord length, width, area, percent connected cord, branching node and segment count, nuclei per cord, angiogenic index (expressed as the percentage of area covered by connected tube), etc. General cytotoxicity was monitored by examination of the nuclear staining of the feed layers."}, "[2]": {"design": "method as in PMID 15919970", "conditions": "cited from earlier work"}},
  "note": "Entries after “also recorded” stand apart in the source; their conditions may differ.",
  "data": [
    {"compound": "Clc1ccc(Nc2nnc(Cc3ccncc3)c3ccccc23)cc1", "note": "[PTK787]", "values": [
      {"measurement": "EC50", "setting": "[1]", "value": 0.14, "unit": "µM"},
      {"measurement": "outcome in clinical trials", "setting": "[2]", "value": "failed to achieve statistical significance"}
    ]},
    {"compound": "O=C(Cc1ccc(-c2cnc3cc(-c4ccncc4)ccn23)cc1)Nc1cccc(C(F)(F)F)c1", "note": "[LY2401401]", "values": [
      {"measurement": "EC50", "setting": "[1]", "value": 0.0092, "unit": "µM"}
    ]},
    {"compound": "CCN(CC)CCNC(=O)c1c(C)[nH]c(/C=C2\\C(=O)Nc3ccc(F)cc32)c1C", "note": "[Sunitinib]", "values": [
      {"measurement": "effect on cord mass in length and area", "setting": "[1]; 30 nM", "value": "significantly inhibited"},
      {"measurement": "number of connected cords, branching nodes, and segment measurements", "setting": "[1]; 30 nM", "value": "all significantly reduced"},
      {"measurement": "number of nuclei per tube", "setting": "[1]; 30 nM", "value": "significantly reduced"},
      {"measurement": "effect on angiogenesis / cord formation", "setting": "[1]; 30 nM compound, compared to medium control", "value": "significantly inhibited angiogenesis; also recorded: drastically inhibited cord formation"},
      {"measurement": "EC50", "setting": "[1]", "value": 0.039, "unit": "µM"}
    ]},
    {"compound": "VEGF", "values": [
      {"measurement": "effect on angiogenesis / cord formation", "setting": "[1]; 20 ng/ml VEGF added to culture", "value": "significantly increased angiogenesis; also recorded: greatly enhanced"}
    ]}
  ]
}
